Test results as given in publication PMC7505085 (ACS chemical biology, 2015).
Like-named read-outs stand apart in the source and are kept apart here.

Tests used:
T98G cells = assay: cytotoxicity in mammalian cells; type: cell-based; settings: read-out: IC50 mammalian cells
T. b. brucei = assay: growth inhibitory activity against axenic T. b. brucei parasites; type: cell-based, Trypanosoma brucei; settings: highest concentration tested 10 μM; for IC50: read-out: IC50 T. b. brucei
HeLa cells = assay: cytotoxicity in mammalian cells; type: cell-based; settings: read-out: IC50 mammalian cells
[1] = HAT treatment; cited from earlier work

SMILES | IC50 (T98G cells) | antitrypanosomal activity (in words) (T. b. brucei) | IC50 (T. b. brucei) | IC50 (T. b. brucei; listed as B) | IC50 (HeLa cells) | drug-induced death rate [1]
CC1=CC=CC[C@H](C)NC(=O)C=CC=CC=C[C@H](C)[C@@H](O)[C@H](O)[C@@H](O)C[C@@H](O)/C=C\C=CC(C)=C1 [Lobosamide A] | > 66 µM | sub-micromolar | 0.8 µM | – | – | –
CC1=CC=CC[C@H](C)NC(=O)C=CC=CC=C[C@H](C)[C@@H](O)[C@H](O)[C@@H](O)C[C@@H](O)/C=C/C=CC(C)=C1 [Lobosamide B] | > 66 µM | – | 6.1 µM | < 10 µM | – | –
CC1=CC=CC[C@H](C)NC(=O)C=CC=CC=C[C@H](C)[C@@H](O)C[C@@H](O)C[C@@H](O)/C=C\C=CC(C)=C1 [Lobosamide C] | – | inactive | > 10 µM | – | > 33 µM | –
CC1=CC=CC=CC[C@H](C)NC(=O)C=CC=CC=CC[C@@H](O)[C@H](O)[C@@H](O)C[C@@H](O)C=CC=C1 [Mirilactam A] | – | lack of activity | > 10 µM | – | – | –
CC1=CC=CC=CC[C@H](C)NC(=O)C=CC=CC=CC[C@@H](O)C[C@@H](O)C[C@@H](O)C=CC=C1 [Mirilactam B] | – | – | > 10 µM | – | > 33 µM | –
Nc1nc(N)nc(Nc2ccc([As]3SCC(CO)S3)cc2)n1 (centres unmarked) [melarsoprol] | – | – | – | – | – | 5%
